In PMC8157569 (Pharmaceuticals, 2021) one finds IC50 data, which are given here for 1 compound.

Structures can show the parent of a compound that is named as a salt.

In this test the target is T1, α1A-adrenoceptor (Homo sapiens, UniProt P35348).
T1 construct: gene ADRA1A
T1 sequence (P35348 1-466): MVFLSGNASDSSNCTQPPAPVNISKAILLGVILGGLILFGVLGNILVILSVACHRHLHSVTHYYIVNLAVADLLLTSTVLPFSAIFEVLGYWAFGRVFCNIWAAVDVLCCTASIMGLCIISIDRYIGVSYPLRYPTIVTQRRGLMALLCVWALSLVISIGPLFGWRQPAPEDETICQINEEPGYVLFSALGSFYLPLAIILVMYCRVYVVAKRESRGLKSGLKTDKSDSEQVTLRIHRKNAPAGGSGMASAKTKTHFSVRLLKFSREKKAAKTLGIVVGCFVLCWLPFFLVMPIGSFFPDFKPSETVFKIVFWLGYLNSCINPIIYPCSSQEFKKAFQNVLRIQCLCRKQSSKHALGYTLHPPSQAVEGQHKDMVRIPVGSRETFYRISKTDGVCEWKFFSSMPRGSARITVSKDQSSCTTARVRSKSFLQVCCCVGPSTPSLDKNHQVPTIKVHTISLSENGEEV
The test can be described thus: aequorin luminescence calcium assay, antagonist mode against phenylephrine, cells stably expressing human α1A-adrenoceptor. The test is classed as cell-based.

A word on the IC50: it is the concentration that gives 50% inhibition. Turning to `COc1ccccc1N1CCN(CCCOc2c(C)cccc2C)CC1` [MH-76, 1-[3-(2,6-dimethylphenoxy)propyl]-4-(2-methoxyphenyl)piperazine hydrochloride], the IC50 turned out to be 1.42 nM.
